Reference: patent US20140045809A1, “CORROLES FOR NEUROPROTECTION AND NEURORESCUE” (priority 2008, published 2014)
“Also recorded” adds a separate entry of the source.

Assays:
RIN-m cells = assay: Protection of RIN-m cells against SIN-1 toxicity (MTT); format: cell-based, rat; conditions: 24 h; for protective effect against SIN-1 induced toxicity (MTT), comparative: 0.1-20 μM, 30 min before SIN-1 (800 μM)
Protocol: INS-1E cells or RIN-m cells were cultured in RPMI with low serum content (2% FCS), placed in microtiter plates (96 wells) at a density of 2.5×10^4 cells/well and allowed to attach for 24 h before treatment. Corroles 1C-Fe and 5C-Fe (10 μM) were added 30 min prior to insult with the nitric oxide donor SIN-1 (500 or 600 μM) for a subsequent 24 h period. Cell viability was evaluated by a colorimetric assay for mitochondrial function using 3-(4,5-dimethylthiazol-2-yl)-2,5-diphenyltetrazolium bromide (MTT test), and expressed as percentage of untreated control. Values higher than 100% reflect increased mitochondrial activity induced by the drug. The results represent the mean±SEM of three independent experiments performed under the same conditions.
Insulin-secreting RIN-m cells were incubated in RPMI with low serum content (2% FCS) and placed in microtiter plates (96 wells) at a density of 2.5×10^4 cells/well and allowed to attach for 24 h before treatment. Cells were treated with corroles 1C-Fe, 1C-Mn or 2C-Mn or porphyrins 1P-Fe or 2P-Mn, in various concentrations (0.1-20 μM), for 30 min prior to insult with SIN-1 (800 μM) for a subsequent 24 h period. Cell viability was evaluated by MTT test and expressed as percentage of untreated control.

SH-SY5Y cells [1] = format: cell-based; conditions: for protection against 6-OHDA compared with porphyrins 1P-Fe and 2P-Mn / 6-OHDA-induced cytotoxicity (MTT, cell death ELISA) / cell mortality, morphology and apoptotic nuclei (GAP-43 immunofluorescence, TUNEL, DAPI): 20 μM; for protection against 6-OHDA compared with porphyrins 1P-Fe and 2P-Mn: 6-OHDA 40 μM, immunofluorescence; for 6-OHDA-induced cytotoxicity (MTT, cell death ELISA) / cell mortality, morphology and apoptotic nuclei (GAP-43 immunofluorescence, TUNEL, DAPI): 30 min before 6-OHDA (40 μM)
Protocol: SH-SY5Y cells were cultured in DMEM-Eagle/F-12(HAM) (1:1) containing 10% FCS. Cells were resuspended in medium containing 2% FCS, seeded in microtiter plates (96 wells) and allowed to attach for 24 h. To examine the neuroprotective effect, cells were pretreated for 30 min with corroles 1C-Fe and 5C-Fe (1-20 μM), and were then exposed to 6-OHDA (60 μM) for further 24 h. For neurorescue assessment, SH-SY5Y cells were first treated with 6-OHDA (60 μM) for 0.5 h, 1.5 h, 3 h and 6 h followed by the addition of compounds 1C-Fe and 5C-Fe (10 μM) for further 24 h.
SH-SY5Y cells were pretreated with or without corroles 1C-Fe, 2C-Mn and 3C-Mn and porphyrins 1P-Fe and 2P-Mn (20 μM), 30 min before exposure to 6-OHDA (40 μM) for a subsequent 24 h period. Cell viability was evaluated by MTT test and cell death was assessed using the apoptotic cell death detection ELISA kit. For neurorescue, SH-SY5Y cells were first exposed to 40 μM 6-OHDA for 0.5. 1, 1.5 and 3 h, followed by the addition of the compounds 1C-Fe, 2C-Mn and 3C-Mn (20 μM) and incubated for further 24 h. Growth-associated protein (GAP-43) was detected by fluorescence microscopy using a specific primary antibody. Apoptotic nuclei were determined by terminal deoxynucleotidyl transferase-mediated UTP-digoxigenin nick end labeling analysis. 4′,6-Diamidino-2-phenylnidole (DAPI) staining was applied for nuclear labeling. […]

[2] = Catalytic decomposition of peroxynitrite (PN), stopped-flow kinetics (Table 1); format: biochemical
Protocol: (§1) SOD activity (enzyme-like catalytic decomposition of superoxide anion radical) of the corroles 1C-Fe, 6C-Fe, 1C-Mn, 1C-Cu, 2C-Mn and 3C-Mn was examined via the cytochrome C assay. The catalytic rate constants for decomposition of peroxynitrite (PN) by the newly prepared iron corrole 6C-Fe and manganese corrole 3C-Mn were determined via stopped-flow kinetics as previously described for corroles 1C-Fe, 1C-Mn, and 2C-Mn (Mahammed and Gross, 2006; Gershman et al., 2007). These tests are performed in order to estimate how electronic and structural variables affect reactivity, which is a crucial factor for design of new complexes.

SH-SY5Y cells [3] = assay: Neuroprotection/neurorescue against SIN-1-induced cell death in SH-SY5Y cells; format: cell-based, human; conditions: for protection against SIN-1 (MTT reduction analysis and ELISA assay): 30 min before SIN-1, 24 h (Example 12)
Protocol: SH-SY5Y cells were cultured in DMEM-Eagle/F-12(HAM) (1:1) containing 10% FCS. Cells were resuspended in medium containing 2% FCS, seeded in microtiter plates (96 wells) and allowed to attach for 24 h before initiation of treatment. […]

[4] = Rescuing DMSO from damage attributed to the hydroxyl radical (Fenton reaction); format: biochemical; conditions: for Yield (%) or amount of product (Formaldehyde): substrate DMSO; for preventing oxidative damage / protection against metal-induced oxidation of substrates: summary of Table 3
From the text: Corrole complexes were examined with respect to their efficiency of rescuing DMSO from damage attributed to the hydroxyl radical, formed via the Fenton reaction that also involves superoxide anion radical and hydrogen […]. It also mimics reaction occurring in biological systems that are exposed to metal toxicity, the situation that occurs in diseases caused by brain iron accumulation.

nitrotyrosine (Ntyr) = assay: SIN-1-induced cellular protein nitration, nitrotyrosine immunofluorescence in SH-SY5Y cells; format: cell-based, human; conditions: 20 μM corrole, SIN-1 700 μM, 24 h
Protocol: To determine the effect of the corroles on SIN-1-induced cellular protein nitration, SH-SY5Y neuroblastoma cells were treated with SIN-1 (700 μM) in the absence or presence of 20 μM of the corroles 1C-Fe, 2C-Mn, and 3C-Mn. Protein nitration was detected by immunofluorescence analysis using a monoclonal antibody against nitrotyrosine (Ntyr), a biological marker of peroxynitrite.

NSC-34 cells = format: cell-based, mouse; conditions: 20 μM, 24 h; for SIN-1-induced cytotoxicity (MTT and ELISA): 30 min before SIN-1 (700 μM)
Protocol: The neuroprotective effects of the iron corrole 1C-Fe and analogous porphyrin 1P-Fe against H2O2 insult were further examined in the motor neuron cell line, NSC-34. NSC-34 cell is a hybrid neuroblastoma x spinal cord (NSC) cell line that resembles motor neurons, displaying a multipolar neuron-like phenotype. Mouse motoneuronal NSC-34 cells were pretreated with or without the corroles 1C-Fe or 2C-Mn or the structurally-related porphyrins 1P-Fe, 2P-Mn, respectively, 30 min before exposure to H2O2 (200 μM) or SIN-1 (700 μM) for a subsequent 24 h period. Cell viability (FIGS. 18A, 19A) was evaluated by MTT test and cell death (FIGS. 18B, 19B) was assessed using the apoptotic cell death detection ELISA kit. [The graphs in FIGS. 18A-18B and 19A-19B present results expressed as percentage of untreated control.

[5] = SOD activity (catalytic decomposition of superoxide anion radical), cytochrome C assay; format: biochemical
Protocol: as §1

[6] = CuSO4/ascorbate, no additive 44 μM
[7] = CuSO4/glutathione, no additive 11 μM

Row | SMILES | protective effect against SIN-1 induced toxicity (MTT) (RIN-m cells; 10 μM, 30 min before SIN-1 (500 or 600 μM)) | protective effect against SIN-1 induced toxicity (MTT), comparative (RIN-m cells) | protection against 6-OHDA compared with porphyrins 1P-Fe and 2P-Mn (SH-SY5Y cells [1]) | 6-OHDA-induced cytotoxicity (MTT, cell death ELISA) (SH-SY5Y cells [1]; 24 h) | cell mortality, morphology and apoptotic nuclei (GAP-43 immunofluorescence, TUNEL, DAPI) (SH-SY5Y cells [1]; 24 h) | neuroprotective effect against 6-OHDA-induced toxicity (SH-SY5Y cells [1]; 1-20 μM, 30 min before 6-OHDA (60 μM), 24 h) | neurorescue after 6-OHDA insult (SH-SY5Y cells [1]; 6-OHDA (60 μM) for 0.5, 1.5, 3 and 6 h, then 10 μM, 24 h) | kcat, catalytic rate constant for decomposition of PN [2] [M⁻¹ s⁻¹] | neurorescue after SIN-1 insult (SH-SY5Y cells [3]; 20 μM added 0.5, 1.5 or 3 h after insult, 24 h (Example 11)) | cytoprotection against different SIN-1 concentrations (SH-SY5Y cells [3]; 25 μM corrole, FIG. 12C) | neuroprotective effect against SIN-1 induced toxicity (SH-SY5Y cells [3]; 10 and 20 μM, 30 min pretreatment, 24 h (Example 11)) | inhibition of neuronal death by SIN-1 (SH-SY5Y cells [3]; 10 and 20 μM, less potent than 2C-Mn and 3C-Mn) | protection against SIN-1 (MTT reduction analysis and ELISA assay) (SH-SY5Y cells [3]) | Yield (%) or amount of product (Formaldehyde) [4, 6] [µM] | Yield (%) or amount of product (Formaldehyde) [4, 7] [µM] | preventing oxidative damage / protection against metal-induced oxidation of substrates [4] | nitrotyrosine (Ntyr) staining, SIN-1-induced (nitrotyrosine (Ntyr)) | protection against H2O2-mediated cytotoxicity (MTT and ELISA) (NSC-34 cells; 30 min before H2O2 (200 μM)) | SIN-1-induced cytotoxicity (MTT and ELISA) (NSC-34 cells) | IC50 [5] [nM]
1 | O=S(=O)(O)c1cc2[n]3c1C(c1c(F)c(F)c(F)c(F)c1F)=C1C=CC4=[N+]1[Fe-]31[n]3c(cc(S(=O)(=O)O)c3-2)C(c2c(F)c(F)c(F)c(F)c2F)=c2ccc([n]21)=C4c1c(F)c(F)c(F)c(F)c1F (centres unmarked) [1C-Fe, 2,17-bis(sulfonato)-5,10,15-tris(pentafluorophenyl)-corrolato iron(III)] | marked protective effect | successful; also recorded: exhibits a greater protective effect | remarkable superiority over the porphyrins | significantly attenuated 6-OHDA-induced cytotoxicity | significantly attenuated 6-OHDA-induced cell mortality, improved cell morphology and reduced the number of apoptotic nuclei | dose-dependent neuroprotective effect | instigated neurorescue | 2e+06 | instigated neurorescue | protect cells against different SIN-1 concentrations | dose-dependent neuroprotective effect | able to inhibit neuronal death | protect, in a dose-dependent manner | 0 | 0 | very potent in preventing the oxidative damage | partial (albeit quite remarkable) reduction in Ntyr staining | significant protection | significantly attenuated | 1640
2 | C[n+]1ccc(C2=C3C=CC4=[N+]3[Mn-]35[n]6c2ccc6-c2ccc([n]23)C(c2cc[n+](C)cc2)=c2ccc([n]25)=C4c2c(F)c(F)c(F)c(F)c2F)cc1.[I-].[I-] (centres unmarked) [2C-Mn, 5,15-bis(4-N-methyl-pyridilium)-10-pentafluorophenyl-corrolato manganese(III) diiodide salt] | – | successful; also recorded: unequivocally in favor of the former; also recorded: improved protective effect | remarkable superiority over the porphyrins | significantly attenuated 6-OHDA-induced cytotoxicity | significantly attenuated 6-OHDA-induced cell mortality, improved cell morphology and reduced the number of apoptotic nuclei | – | – | 400000 | – | – | – | – | protect, in a dose-dependent manner | 7 | 5 | protect better than corrole 1C-Mn | totally abolished | – | significantly attenuated | 1520
